Assay results as given in patent US20040133938A1, “Use of lipoic acid in plant culture media” (priority 2002, published 2004).

How the values were obtained:
[1] = test system: MicroTom cotyledon explants; assay: Tissue browning severity on Agrobacterium-inoculated MicroTom cotyledon explants; assay type: cell-based, Lycopersicon esculentum; conditions: after 5 days on selection media
Experimental: This example describes the use of lipoic acid in an Agrobacterium-based tomato transformation process. MicroTom (a cultivar of tomato species: Lycopersicon esculentum) seeds from Tomato Growers (Ball Seed Co., West Chicago, Ill. USA) were surface-sterilized by first soaking for 10 min in sterile deionized water, removing the water, and then adding enough 70% ethanol to immerse the seeds for 1 min while stirring vigorously and then aspirating the ethanol. The seeds were rinsed 2× with sterile deionized water and then soaked in 25% Chlorox with 1-2 drops of Tween 20 for 10 min while stirring frequently. The seeds were rinsed 3× with sterile deionized water. The seeds were germinated in phytatrays containing Davis Germination medium (4.3 g/L MS salts, 2 ml/L Gamborg's B-5 500× salts, 20 g/L sucrose and 10 g/L agar) (approximately 120 seeds/container), and the phytatrays were wrapped with aluminum foil. The phytatray cultures were maintained at 28° C. under the dark for 5 days. After 5 days, the phytatray cultures were unwrapped and grown at 24° C. under a 16 h photoperiod for about 44 h.
Cotyledon explants were isolated from seedlings 7 days after sowing seeds on Davis Germination medium. Cotyledon explants were prepared by bathing them in 6 mL of TXD liquid medium (4.3 g/L MS salts, 2 mL/L Gamborg's B-5 500× salts, 4 mg/L pCPA (p-chlorophenoxyactic acid), 0.005 mg/L kinetin, and 30 g/L sucrose) to prevent desiccation and trimming them at both ends using a #15 feather blade. Immediately after the trimming, the cotyledon explants were gently placed on “feeder plates” containing UC2PC medium (2.2 g/L MS salts, 2.2 mL/L, Gamborg's B-5 500× salts, 0.2 mg/L 2,4-D, 4 mg/L pCPA, 0.1 mg/L kinetin, 30 g/L sucrose, 0.2 g/L potassium phosphate, 10 g/L agar, 8 mL/L acetosyringone (4.91 mg/mL), and 4 mL galacturonic acid (53.05 mg/mL)). The “feeder plates” are made by overlaying 2 mL of tobacco suspension cells and a sterile Whatman filter on the plates containing UC2PC medium. The cotyledon explants were gently poked with a sharp forceps (ASIM5311, Stainless French, made in Switzerland). Usually six to ten pokes were made per explant depending the size of cotyledons. Right after poking, the cotyledons were inoculated with Agrobacterium containing pMON15715 (FIG. 1) by adding 3 mL of the adjusted Agrobacterium solution on top of the cotyledons. The plates were incubated for 10 min at room temperature, and the Agrobacterium solution was aspirated with a sterile pipette. The cotyledons were then co-cultured for 2 days at 23-24° C. under a 16-h photoperiod. The co-culture plates were placed in plastic bags to keep the humidity, which is preferable for MicroTom growth.
[…] Three to four weeks after the induction stage, the cotyledons formed buds or shoots. Cotyledons with buds or shoots were separated by individual event and transferred to, shoot elongation medium E2 (SI-2 medium without IAA), supplemented with 100 mg/L kanamycin for two to four weeks. All culture plates were placed in a culture box, placed inside a plastic bag, and cultured at 23-24° C. under a 16 h photoperiod.
Evaluation of plants after transformation with pMON15715 (FIG. 1) as described above was carried out in multiple ways. About five days after selection, tissue browning severity within and around the poked region on cotyledon explants was measured under a dissecting microscope. Low tissue browning severity was determined as less than 30% of the pokes made on each cotyledon explant that produced browning tissue and the high tissue browning severity was determined as more than 30% of the pokes made on each explant that generated browning tissue 5 days after culturing on selection medium. All the treatments of lipoic acid at concentrations of 5, 10, 50 and 100 μM had 1.5- to 1.8-fold increases of the percentage of explants scored as low tissue browning severity, respectively, compared to the treatment without lipoic acid (Table 1).

[2] = test system: immature embryos of wheat cv Bobwhite; assay: Wheat Agrobacterium transformation; assay type: cell-based, Triticum aestivum L; conditions: for Efficiency (%) / Responding calli (%): selection and first regeneration media
Experimental: This example describes the use of lipoic acid in an Agrobacterium-based wheat transformation process. Immature embryos of wheat (Triticum aestivum L) cv Bobwhite were isolated from the immature caryopsis (wheat spikelets) 13-15 days after pollination, and cultured on M7 media (M7 medium is based on CM4C medium [Table 8], but the amount of MS salts was doubled and the picloram concentration was increased from 2.4 mg/L to 4 mg/L) containing 0.02 mM glyphosate for 3-4 days in the dark at 25° C. The embryos without embryogenic callus were selected for Agrobacterium inoculation. After preculture, 100 embryos were inoculated in 5 mL 1/10 CM4C medium with 5 mL Agrobacterium (OD660=1), 10 μL Pluronic F68 was added, and the mixture was incubated for 15 minutes in the dark at room temperature. Embryos were placed on sterilized filter paper with 200 μL deionized water and cocultured in the dark for 3 days at 23° C. Embryos were then transferred to delay media for 7 days in the dark at 25° C. Delay medium consists of CM4C, 500 mg/L carbenicillin, and 0.02 mM glyphosate. Selection was then performed on CM4C with 2 mM glyphosate, 500 mg/L carbenicillin and aromatic amino acids (10^−7/amino acid) for 7 days. Regeneration was started on MMSO.2C with 0.1 mM glyphosate, 250 mg/L carbenicillin, and aromatic amino acids ([…]) for 2 weeks in the light at 25° C. Regeneration was continued in MMSO.2C with 0.02 mM glyphosate, 500 mg/L carbenicillin, aromatic amino acids (10^−7/amino acid), and 2 μM copper sulfate for 2-8 weeks (with a transfer every 2 weeks) in the light at 25° C. Finally, plantlets were transferred to sundae cups with MMSO media with 0.02 mM glyphosate, and 500 mg/L carbenicillin.

[3] = Delay-selection-first regeneration 25-25-50 (μM), 599 explants
[4] = Delay-selection-first regeneration 25-50-50 (μM), 560 explants
[5] = Delay-selection-first regeneration 50-50-50 (μM), 570 explants

O=C(O)CCCCC1CCSS1 (stereo not drawn) [lipoic acid, 1,2-dithiolane-3-pentanoic acid]
% high browning ([1]; 5 μM lipoic acid): 34.9% | % low browning ([1]; 5 μM lipoic acid): 65.1% | % high browning ([1]; 10 μM lipoic acid): 33.9% | % low browning ([1]; 10 μM lipoic acid): 66.1% | % high browning ([1]; 50 μM lipoic acid): 34.4% | % low browning ([1]; 50 μM lipoic acid): 65.6% | % high browning ([1]; 100 μM lipoic acid): 46% | % low browning ([1]; 100 μM lipoic acid): 54% | Efficiency (%) ([2]; 5 μM in delay, 472 explants): 3.8% | Responding calli (%) ([2]; 5 μM in delay, 472 explants): 33.1% | Efficiency (%) ([2]; 10 μM in delay, 486 explants): 3.2% | Responding calli (%) ([2]; 10 μM in delay, 486 explants): 38.8% | Efficiency (%) ([2]; 30 μM in delay, 486 explants): 3.0% | Responding calli (%) ([2]; 30 μM in delay, 486 explants): 38.6% | Efficiency (%) ([2]; 50 μM in delay, 482 explants): 5.1% | Responding calli (%) ([2]; 50 μM in delay, 482 explants): 47.9% | Efficiency (%) ([2]; 100 μM in delay, 464 explants): 2.2% | Responding calli (%) ([2]; 100 μM in delay, 464 explants): 28.4% | % efficiency [2, 3]: 3.0% | % responding calli [2, 3]: 41.7% | % efficiency [2, 4]: 5.4% | % responding calli [2, 4]: 50.5% | % efficiency [2, 5]: 4.9% | % responding calli [2, 5]: 49.6%
